From patent US20120100204A1, “TGF-Beta Stimulating Agent Compositions and Combinations” (TCP INNOVATIONS LTD, priority 2007, published 2012)

Experiments:
[1] = test system: apoE-deficient mice; assay: vascular lipid lesion formation at the aortic root, Oil Red O staining; type: in vivo; settings: for Intimal lipid lesion area / Intimal:media area ratio / Lipid lesion area / Total intimal area: Aspirin 30 mg/kg/day, mean ± SD; for reduction of vascular lipid lesion area: Tamoxifen 1 mg/kg/day p.o, vs control
Excerpt: Adult male apoE-deficient mice, back-crossed onto a C57B16 background for at least five generations, were randomised into groups of eight animals at 12 weeks of age, such that each group had similar average body weight. […] The amount of food eaten and the body weight of each mouse was monitored daily for the first week, and once per week thereafter. After 12 weeks of treatment, the mice were sacrificed by CO2 asphyxiation, and heart & lung blocks were excised, embedded in Cryo-M-bed (Bright Instruments, UK) without fixation and snap frozen in liquid nitrogen.
Sections were then prepared from the aortic root according to the Paigen Strategy (a defined sequence of cutting sections which allow reproducible comparison between animals; see for example Grainger et al. (1995) Nature Med. 1:1067-72 and the references therein). 4 μm crysosections were cut using a motordriven cryotome (Bright Instruments) and collected onto poly-L-lysine coated glass microscope slides, then fixed in ice-cold acetone for 90 secs, allowed to air dry and stored at −20° C. until analysed.
The extent of vascular lipid lesion formation was assessed by Oil Red O staining, with a Fast Green counterstain, a standard histological procedure well known in the art. Briefly, five sections (selected according to the Paigen strategy) from each animal were passed through graded alcohol solutions, then stained in Oil Red O for 12 minutes, washed several times and then counterstained by dipping in Fast Green for 5-10 secs, and then dip washed in several changes of clean water. After air drying, an appropriate mountant was applied (simple glycerol-based moutants are most appropriate for this task), followed by a coverslip using acrylic varnish surrounding the coverslip to hold it in place. Slides were then analysed using a simple inverted microscope (no phase contrast; 10× objective; Olympus AX series), fitted with a digital camera to capture images of the entire aortic wall. The images were subsequently processed, blind to the treatment status of the animal, using Openlab image analysis software (Improvision, UK) running on an Apple Macintosh computer. On each image, the user delineated the external elastic lamina, internal elastic lamina and the luminal surface of the vessel wall, and the software reported the total intimal area, the intimal:medial area ratio, the total neutral lipid area and the intimal lipid area. The values from each image were summed (except for intimal:media area ratio, which were averaged), and then the values from each slide were summed (or averaged, as above) to yield a value for each parameter for each animal. […]
Adult male apoE-deficient mice were treated, in groups of 8, with fish oil (Seven Seas, UK), aspirin or both agents simultaneously from 12 weeks of age until 24 weeks of age, exactly as described in Example 2.
Mice were sacrificed and heart & lung blocks prepared and processed exactly as described in Example 2. Sections were prepared in accordance with the Paigen Strategy, as in example 2. The extent of lipid lesion formation was assessed by Oil Red 0 staining with Fast Green counterstain, exactly as in example 2.

[2] = test system: tgfb1 mRNA; assay: tgfb1 mRNA level by quantitative PCR in human aortic vascular smooth muscle cells; type: cell-based; settings: 24 hrs
Description: (1995) Cardiovasc. Res. 29:848-55). […] The cells were then incubated for either 24 hrs or 72 hrs depending on the experiment. All treatment conditions were established in triplicate. The level of mRNA for tgfb1, tgfb2 and tgfb3 were estimated by quantitative PCR. The media was removed and RNA was carefully prepared using the Ambion RNAqueous4PCR kit (Ambion#1914) in accordance with the manufacturer's instructions. The purity of the RNA and the quantity was assessed spectrophotometrically. […] This analysis results in both a gel-like image as well as electrophoretic data. Indications of RNA degradation are: (a) decreasing ratio of ribosomal bands (b) additional peaks bellow the ribosomal bands (c) Decrease in overall RNA signal (d) shift towards shorter fragments. All the mRNA samples used in the experiments presented here passed this RNA quality control step. Next, the RNA was converted to cDNA using the ABI High-Capacity cDNA Archive Kit, in accordance with manufacturer's instructions. […] Samples were vortexed to ensure thorough mixing. cDNA was aliquoted into ABI 384 well plates using a multi-channel pipette, 4.5 μl of sample into each well. Samples were assayed in triplicate (that is, nine determinations in total were made for each condition, being three separate assays on each of three replicate culture wells). The assay mix and Universal Master Mix were prepared and aliquoted across the 384 well plates 5.5 μl in each well, using a single channel pipette. The final composition of each reaction (10 μl) being: […] Universal Master Mix=5 μl; cDNA=4.5 μl. The plates were then heat sealed using Abgene clear seal strong plastic heat seals, and then cycled and scanned using the ABI 9700HT under the following conditions: 95° C. for 10 minutes to activate the AmpliTaq GOLD, then 40 cycles of: 95° C. for 15 sec (Denaturation), 60° C. for 60 […]). […] Quantitative PCR was performed using several primer/probe sets. […] We used both commercially available primer/probe sets (ABI Taqman pre-validated assays), using both available sets in the ABI database for tgfb1 and tgfb2, as well as the single available set for tgfb3. In addition, we used our own manual design probe/primer set for each of tgfb1, tgfb2 and tgfb3. For normalisation, we used TATA-binding protein (TBP) as the primary normalisation standard, with GAPDH as an alternative for confirmation, using ABI Taqman pre-validated probe/primer sets. […] Neither TBP nor GAPDH mRNA levels are affected by TGF-beta and are therefore equally suitable, however TBP was selected as the primary normalisation standard because the absolute level of mRNA in most cell types is similar to that of the TGF-beta isoforms, resulting in lower errors on calculating the ratio, and improving the power of the experiment. In all quantitative PCR experiments, several additional controls were included: firstly, a control for each sample is run with no reverse transcription to ensure the mRNA sample is not contaminated with genomic DNA (although the manual design probe/primer sets were all selected to cross an exon/exon boundary, ensuring no detectable amplicon is produced from genomic DNA templates). […] This control ensures that the results for the unknown samples are obtained in the linear range of the amplification process, and are therefore truly quantitative. Failure of either control led to the repeat of the entire experiment. Typically, the half maximal signal was obtained after 20-30 amplification cycles. […]

[3] = 12 to 24 weeks of age, Fish oils 100 mg/kg/day
[4] = 12 weeks in chow, TMX 1 mg/kg/day

## CC(=O)Oc1ccccc1C(=O)O [Aspirin, acetylsalicylic acid]
[1]; [3]
  Intimal lipid lesion area: 31,006 ± 7,176 μm2
  Intimal:media area ratio: 62 ± 9%
  Lipid lesion area: 35,860 ± 8,091 μm2
  Total intimal area: 65,209 ± 6.712 μm2
[1]; [4]
  Intimal lipid lesion area: 31,006 ± 7,176 μm^2
  Intimal:media area ratio: 62 ± 9%
  Lipid lesion area: 35,860 ± 8,091 μm^2
  Total intimal area: 65,209 ± 6,712 μm^2
[1]; Example 2
  effect on total intimal area and intimal:medial area ratio: did not affect
[1]; aspirin 30 mg/kg/day p.o
  reduction of vascular lipid lesion area: 6%
[1]; administered separately, fish oil 100 mg/kg/day p.o, aspirin 30 mg/kg/day p.o
  effect on any measure of vascular lipid lesion area or plaque size: no statistically significant effect
[2]; 10 μM A
  Level of mRNA, estimated by qPCR: tgfb1: 1.01 ± 0.04 fold-change
[2]; 33 μM A
  Level of mRNA, estimated by qPCR: tgfb1: 0.93 ± 0.11 fold-change
[2]; 100 μM A
  Level of mRNA, estimated by qPCR: tgfb1: 1.06 ± 0.08 fold-change
[2]; any concentration tested (up to 100 μM)
  effect on the mRNA levels of any of the three isoforms of TGF-beta: no statistically significant effect

## CC/C(=C(\c1ccccc1)c1ccc(OCCN(C)C)cc1)c1ccccc1 [Tamoxifen]
[1]; [4]
  Intimal lipid lesion area: 9,393 ± 2,221 * μm^2
  Lipid lesion area: 10,794 ± 2,820 * μm^2
  Total intimal area: 64,428 ± 4,294 μm^2
[1]; aspirin 30 mg/kg/day p.o
  reduction of vascular lipid lesion area: 72%
[2]; 3.3 μM T, normalised to TBP, vs vehicle
  Level of mRNA, estimated by qPCR: tgfb1: 0.95 ± 0.16 fold-change
[2]; 10 μM T
  Level of mRNA, estimated by qPCR: tgfb1: 1.27 ± 0.09 fold-change
[2]; 33 μM T, listed as T
  Level of mRNA, estimated by qPCR: tgfb1: 1.41 ± 0.08 fold-change
[2]; 33 μM T, listed as TMX
  Level of mRNA, estimated by qPCR: tgfb1: approximately 1.4 fold-change
[2]
  doses that significantly increased tgfb1 mRNA: ≥ 10 µM
